pIC50: −log10 of the molar value.
Assays:
[1] = target: casein kinase 1 epsilon (CK1 epsilon) (Homo sapiens (Human), UniProt P49674); test: Test A: inhibitory activity on CK1 epsilon, casein phosphorylation assay on ATP-33P filter plate; type: biochemical; details: IC50 values or IC50 ranges (result of several experiments), ATP 10 μM final
Summary of the method: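 Human CK1 epsilon (3 ng/μL final) phosphorylates dephosphorylated casein (0.2 μg/μL) with ATP-33P plus 10 μM cold ATP (KM for ATP 21 μM), 2 h at room temperature, pH 7.5 Tris buffer. TCA-precipitated protein counted by scintillation; compounds at 10 to 0.001 μM give IC50 values or % inhibition at 10 μM.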

Chain of casein kinase 1 epsilon (CK1 epsilon) (P49674 whole entry): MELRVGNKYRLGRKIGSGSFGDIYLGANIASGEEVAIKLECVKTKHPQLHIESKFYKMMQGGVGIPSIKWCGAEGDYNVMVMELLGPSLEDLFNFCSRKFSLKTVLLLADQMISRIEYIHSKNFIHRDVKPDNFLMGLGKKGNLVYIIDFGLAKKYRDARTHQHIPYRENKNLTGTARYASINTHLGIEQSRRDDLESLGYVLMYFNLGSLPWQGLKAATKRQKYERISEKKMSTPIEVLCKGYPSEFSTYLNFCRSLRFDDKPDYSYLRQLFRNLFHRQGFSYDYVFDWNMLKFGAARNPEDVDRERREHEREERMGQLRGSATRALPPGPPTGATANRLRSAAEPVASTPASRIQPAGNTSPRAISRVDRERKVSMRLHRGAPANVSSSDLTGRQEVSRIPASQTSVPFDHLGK

| SMILES | pIC50 [1] | melting point [°C] |
| --- | --- | --- |
| COc1ccc(-c2c(C(N)=O)c3n(c2C2CC2)CCN(C(=O)NC24CC5CC(CC(C5)C2)C4)C3)cc1 [Compound 55, N^2-(adamantan-1-yl)-6-cyclo-propyl-7-(4-methoxyphenyl)-3,4-dihydropyrrolo[1,2-a]pyrazine-2,8(1H)-dicarboxamide] | 8.30 to 8.52 | 224 to 226 |
| COc1ccc(-c2c(C(N)=O)c3n(c2Cl)CCN(C(=O)NC(C)(C)C)C3)cc1 [Compound 64, N^2-tert-butyl-6-chloro-7-(4-methoxyphenyl)-3,4-dihydropyrrolo[1,2-a]pyrazine-2,8(1H)-dicarboxamide] | 8.30 to 9.00 | 168 to 170 |
| CC(C)CCNC(=O)N1CCn2c(Cl)c(-c3ccccc3)c(C(N)=O)c2C1 [Compound 69, 6-chloro-N^2-(3-methylbutyl)-7-phenyl-3,4-dihydropyrrolo[1,2-a]pyrazine-2,8(1H)-dicarboxamide] | 8.30 | 154 to 155 |
| CC(C)(C)NC(=O)N1CCn2c(c(C(N)=O)c(-c3ccc(F)cc3)c2C2CC2)C1 [Compound 47, N^2-tert-butyl-6-cyclo-propyl-7-(4-fluorophenyl)-3,4-dihydropyrrolo[1,2-a]pyrazine-2,8(1H)-dicarboxamide] | 6.84 to 7.35 | 220 to 223 |
| NC(=O)c1c(-c2ccccc2)c(Cl)n2c1CN(C(=O)NC1CCCCC1)CC2 [Compound 82, 6-chloro-N^2-cyclo-hexyl-7-phenyl-3,4-dihydropyrrolo[1,2-a]pyrazine-2,8(1H)-dicarboxamide] | 8.15 to 9.00 | 208 to 209 |
| COc1ccc(-c2cn3c(c2C(N)=O)CN(C(=O)NC(C)(C)C)CC3)cc1 [Compound 2, N^2-tert-butyl-7-(4-methoxyphenyl)-3,4-dihydropyrrolo[1,2-a]pyrazine-2,8(1H)-dicarboxamide] | > 9.00 | 197 to 198 |
| N#Cc1cccc(-c2c(C(N)=O)c3n(c2Cl)CCN(C(=O)NC2CCOCC2)C3)c1 [Compound 95, 6-chloro-7-(3-cyanophenyl)-N^2-(tetrahydro-2H-pyran-4-yl)-3,4-dihydropyrrolo[1,2-a]pyrazine-2,8(1H)-dicarboxamide] | 8.22 | 236 to 238 |
| COc1ccc(-c2c(C(N)=O)c3n(c2C2CC2)CCN(C(=O)NC2(C4CC4)CC2)C3)cc1 [Compound 51, N^2-[1,1′-bi(cyclo-propyl)-1-yl]-6-cyclo-propyl-7-(4-methoxyphenyl)-3,4-dihydropyrrolo[1,2-a]pyrazine-2,8(1H)-dicarboxamide] | 7.40 | 175 to 177 |
| Cc1cccc(-c2c(C(N)=O)c3n(c2Cl)CCN(C(=O)NC(C)(C)C)C3)c1 [Compound 61, N^2-tert-butyl-6-chloro-7-(3-methylphenyl)-3,4-dihydropyrrolo[1,2-a]pyrazine-2,8(1H)-dicarboxamide] | 8.10 to 9.00 | 196 to 197 |
| NC(=O)c1c(-c2cccc(F)c2)c(Cl)n2c1CN(C(=O)N[C@H]1CC[C@H](O)CC1)CC2 [Compound 83, trans-6-chloro-7-(3-fluorophenyl)-N^2-(4-hydroxy-cyclo-hexyl)-3,4-dihydropyrrolo[1,2-a]pyrazine-2,8(1H)-dicarboxamide] | 8.40 to 8.70 | 251 to 253 |
| COc1ccc(-c2c(C(N)=O)c3n(c2C2CC2)CCN(C(=O)NC(C)(C)C)C3)cc1 [Compound 36, N^2-tert-butyl-6-cyclo-propyl-7-[4-(methoxy)phenyl]-3,4-dihydropyrrolo[1,2-a]pyrazine-2,8(1H)-dicarboxamide] | 7.12 to 7.34 | 177 to 179 |
| CC(C)(C)NC(=O)N1CCn2c(c(C(N)=O)c(-c3ccc(OCc4ccccc4)cc3)c2C2CC2)C1 [Compound 40, 7-[4-(benzyloxy)phenyl]-N^2-tert-butyl-6-cyclo-propyl-3,4-dihydropyrrolo[1,2-a]pyrazine-2,8(1H)-dicarboxamide] | 7.42 | 203 to 206 |
| CC(C)(C)NC(=O)N1CCn2c(c(C(N)=O)c(-c3cccc(OCc4ccccc4)c3)c2C2CC2)C1 [Compound 34, 7-[3-(benzyloxy)phenyl]-N^2-tert-butyl-6-cyclo-propyl-3,4-dihydropyrrolo[1,2-a]pyrazine-2,8(1H)-dicarboxamide] | 6.50 | 156 to 158 |
| COc1ccc(-c2c(C(N)=O)c3n(c2C2CC2)CCN(C(=O)NC2CCOCC2)C3)cc1 [Compound 56, 6-cyclo-propyl-7-(4-methoxyphenyl)-N^2-(tetrahydro-2H-pyran-4-yl)-3,4-dihydropyrrolo[1,2-a]pyrazine-2,8(1H)-dicarboxamide] | 7.42 to 7.59 | 176 to 177 |
| NC(=O)c1c(-c2cccc(F)c2)c(Cl)n2c1CN(C(=O)NC1CCC(F)(F)CC1)CC2 [Compound 89, 6-chloro-N^2-(4,4-difluoro-cyclo-hexyl)-7-(3-fluorophenyl)-3,4-dihydropyrrolo[1,2-a]pyrazine-2,8(1H)-dicarboxamide] | 8.52 to 9.00 | 212 to 214 |
| COCC(C)(C)NC(=O)N1CCn2c(c(C(N)=O)c(-c3ccc(OC)cc3)c2C2CC2)C1 [Compound 57, 6-cyclo-propyl-N^2-(1-methoxy-2-methylpropan-2-yl)-7-(4-methoxyphenyl)-3,4-dihydropyrrolo[1,2-a]pyrazine-2,8(1H)-dicarboxamide] | 7.44 | 168 to 170 |
| CC(C)(C)NC(=O)N1CCn2c(c(C(N)=O)c(-c3ccc(Oc4ccccc4)cc3)c2C2CC2)C1 [Compound 39, N^2-tert-butyl-6-cyclo-propyl-7-(4-phenoxyphenyl)-3,4-dihydropyrrolo[1,2-a]pyrazine-2,8(1H)-dicarboxamide] | 7.44 to 8.40 | 157 to 159 |
| CC(C)(CO)CNC(=O)N1CCn2c(Cl)c(-c3cccc(C(F)(F)F)c3)c(C(N)=O)c2C1 [Compound 74, 6-chloro-N^2-(3-hydroxy-2,2-dimethylpropyl)-7-(3-trifluoromethyl-phenyl)-3,4-dihydropyrrolo[1,2-a]pyrazine-2,8(1H)-dicarboxamide] | 8.22 | 185 to 187 |
| COc1ccc(-c2c(C(N)=O)c3n(c2C2CC2)CCN(C(=O)NC24CC5CC(CC2C5)C4)C3)cc1 [Compound 53, 6-cyclo-propyl-N^2-(hexahydro-2,5-methanopentalen-3a(1H)-yl)-7-(4-methoxyphenyl)-3,4-dihydropyrrolo[1,2-a]pyrazine-2,8(1H)-dicarboxamide] | 8.15 | 216 to 219 |
| NC(=O)c1c(-c2cccc(C(F)(F)F)c2)c(Cl)n2c1CN(C(=O)NC1CCOCC1)CC2 [Compound 96, 6-chloro-N^2-(tetrahydro-2H-pyran-4-yl)-7-[3-(trifluoromethyl)phenyl]-3,4-dihydropyrrolo[1,2-a]pyrazine-2,8(1H)-dicarboxamide] | 7.72 | 220 to 222 |

The next lines start with the values.

| pIC50 [1] | melting point [°C] | SMILES |
| --- | --- | --- |
| 7.80 to 8.70 | 119 to 124 | NC(=O)c1c(-c2cccc(F)c2)c(Cl)n2c1CN(C(=O)NCCC(F)(F)F)CC2 [Compound 80, 6-chloro-7-(3-fluorophenyl)-N^2-(3,3,3-trifluoropropyl)-3,4-dihydropyrrolo[1,2-a]pyrazine-2,8(1H)-dicarboxamide] |
| 9.00 | > 217 | CC(C)(C)NC(=O)N1CCn2c(C#N)c(-c3cccc(F)c3)c(C(N)=O)c2C1 [Compound 105, 6-cyano-7-(3-fluorophenyl)-N^2-(tert-butyl)-3,4-dihydropyrrolo[1,2-a]pyrazine-2,8(1H)-dicarboxamide] |
| 8.70 to 9.00 | 192 to 195 | CC(C)(C)NC(=O)N1CCn2c(Cl)c(-c3cccc(C#N)c3)c(C(N)=O)c2C1 [Compound 65, N^2-tert-butyl-6-chloro-7-(3-cyanophenyl)-3,4-dihydropyrrolo[1,2-a]pyrazine-2,8(1H)-dicarboxamide] |
| 8.10 to 8.70 | 208 to 213 | NC(=O)c1c(-c2cccc(F)c2)c(Cl)n2c1CN(C(=O)NCC(F)(F)F)CC2 [Compound 77, 6-chloro-7-(3-fluorophenyl)-N^2-(2,2,2-trifluoroethyl)-3,4-dihydropyrrolo[1,2-a]pyrazine-2,8(1H)-dicarboxamide] |
| 8.40 | 169 to 171 | N#Cc1c(-c2cccc(F)c2)c(C(N)=O)c2n1CCN(C(=O)NCCCC(F)(F)F)C2 [Compound 108, 6-cyano-7-(3-fluorophenyl)-N^2-(4,4,4-trifluoro-butyl)-3,4-dihydropyrrolo[1,2-a]pyrazine-2,8(1H)-dicarboxamide] |
| > 9.00 | 202 to 204 | CC(C)(NC(=O)N1CCn2c(C#N)c(-c3cccc(F)c3)c(C(N)=O)c2C1)C(F)(F)F [Compound 107, 6-cyano-7-(3-fluorophenyl)-N^2-(1,1,1-trifluoro-2-methylpropan-2-yl)-3,4-dihydropyrrolo[1,2-a]pyrazine-2,8(1H)-dicarboxamide] |
| 8.05 | 232 to 234 | N#Cc1c(-c2cccc(F)c2)c(C(N)=O)c2n1CCN(C(=O)NC1CCOCC1)C2 [Compound 109, 6-cyano-7-(3-fluorophenyl)-N^2-(tetrahydro-2H-pyran-4-yl)-3,4-dihydropyrrolo[1,2-a]pyrazine-2,8(1H)-dicarboxamide] |
| > 9.00 | 184 to 189 | CC(C)(C)NC(=O)N1CCn2c(Br)c(-c3cccc(F)c3)c(C(N)=O)c2C1 [Compound 104, 6-bromo-7-(3-fluorophenyl)-N^2-tert-butyl-3,4-dihydropyrrolo[1,2-a]pyrazine-2,8(1H)-dicarboxamide] |
| > 9.00 | 237 to 240 | N#Cc1c(-c2cccc(F)c2)c(C(N)=O)c2n1CCN(C(=O)NC1CCC(F)(F)CC1)C2 [Compound 110, 6-cyano-N^2-(4,4-difluoro-cyclohexyl)-7-(3-fluorophenyl)-3,4-dihydropyrrolo[1,2-a]pyrazine-2,8(1H)-dicarboxamide] |

Reference: patent US9233965B2, “3,4-dihydropyrrolo[1,2-A]pyrazine-2,8(1H)-dicarboxamide derivatives, preparation thereof and therapeutic use thereof for diseases involving casein kinase 1 epsilon and/or casein kinase 1 delta” (SANOFI, priority 2010, dated 2016)
